What all share (assay type): binding
In assay [1] the test system is anti-C33 70-13 or 12A1H2 monoclonal antibodies. The assay can be described thus: Spotscan immunoreactivity of overlapping octapeptides with anti-C33 monoclonal antibodies. The following applies: monoclonal antibodies 100 nM; β-galactosidase anti-mouse conjugate 1/200; estimated qualitatively. The procedure:
The synthesis was conducted on an activated cellulose membrane according to the technique developed by Berg et al. (1989, J. Ann. Chem. Soc., 111, 8024-8026) and available from Cambridge Research Biochemicals (trade name Spotscan). This technique allows simultaneous synthesis of a large number of peptides. The escerified amino acids used in the synthesis have an α-amino group protected by an FMOC group (Nova Biochem) and side groups protected by protective groups such as, for example, trityl, t-butyl ester, or t-butyl ether. The esterified amino acids are dissolved in N-methylpyrrolidone (NMP) at the concentration of […] and 0.9 μl are deposited at the attachment sites of bromphenol blue. After 15 minutes incubation, amino acids are deposited once again, followed by a further incubation of 15 minutes. If the coupling between the two amino acids is done correctly, a color change is observed (transition from blue to yellow-green). After three washings in DMF, an acetylation step is performed by acetic anhydride. Then the terminal amino groups of the peptides undergoing synthesis are deprotected by piperidine in a 20% solution in DMF. The deposition sites are re-stained by a 1% bromophenol blue solution in DMF, washed three times with methanol, and dried. This sequence of operations constitutes one amino acid addition cycle, and this cycle is repeated until synthesis is complete. When all the amino acids have been added, the NH2 terminal group of the last amino acid is deprotected by piperidine in a 20% solution in DMF and acetylated with acetic anhydride. The protective groups of the side chain are removed by a mixture of dichloromethane/trifluoroacetic acid/triisobutylsilane (5 ml/5 ml/250 μl). The immunoreactivity of the peptides thus synthesized can then be tested, for example, by ELISA.
After synthesis of the various octapeptides, the cellulose membrane is rinsed with methanol, washed in TBS (0.1 M Tris, pH 7.2) then incubated overnight at room temperature in saturation buffer (available from Cambridge Research Biochemicals). After several washings with TBS-T (0.1 M Tris, pH 7.2-0.05% Tween 20), the membrane is placed in contact with a solution of anti-C33 70-13 or 12A1H2 monoclonal antibodies (100 nM), and incubated for four hours at room temperature. After three washings with TBS-T, the anti-mouse-immunoglobulin conjugate labeled with β-galactosidase (available from Cambridge Research Biochemicals) is added to a 1/200 dilution and these materials are incubated for two hours at room temperature. After several washings of the membrane with 0.05% TBS-Tween and PBS, the immunoreactivity at the various spots is developed by adding a solution of substrate (5-bromo-4-chloro-3-indoyl-β-D-galactopyranoside in PBS containing magnesium chloride and potassium ferricyanide) and incubating for ten to forty minutes. The color of the spots is estimated qualitatively on a numerical scale from 0 to 5.

For assay [2], the system named is mixture of human sera from patients infected by HCV (anti-C33 antibodies). Nature of the assay: Spotscan immunoreactivity of overlapping octapeptides with mixture of human sera. The following applies: 1/50 dilution of human sera mixture; anti-human-immunoglobulin conjugate 1/200.
The test system of another assay is anti-C33 antibodies. The assay can be described thus: Spotscan point substitution tests on the Lys-Phe-Ser-Ser-Arg-Leu-Gly-Ala peptide. To be noted: point or double substitution of amino acids. The procedure: In order to determine the degree to which the nature of the various amino acids constituting the Lys-Phe-Ser-Ser-Arg-Leu-Gly-Ala peptide can vary without reducing the antigenic properties of said peptide with respect to anti-C33 antibodies, point substitution tests were performed.
The peptides were synthesized by the method described in the previous example, known as "Spotscan", substituting each amino acid on the peptide at a given position by the other nineteen. These peptides were then tested as described above. The size of each residue can thus be examined and the peptide grouping the best amino acids in each position can then be synthesized.

Where no end group is shown, it is not given here.

As to DGAKFSSR, in assay [1], the “color of the spots (immunoreactivity)” value is “first color”.

In the case of FSSRLGAA, the “color of the spots (immunoreactivity)” value in assay [2] is “maximum color”; in assay [1] it was “maximum”.

Take KASSYLGA [SEQ ID NO: 36]: in the assay on anti-C33 antibodies, the “response compared with the Lys-Phe-Ser-Ser-Arg-Leu-Gly-Ala peptide” value was “advantageously”.

KFSSGLGA [SEQ ID NO: 32]: in the assay with anti-C33 antibodies, the “response compared with the Lys-Phe-Ser-Ser-Arg-Leu-Gly-Ala peptide” value is reported as “better response”.

On to KFSSPLGA [SEQ ID NO: 33], for which the “response compared with the Lys-Phe-Ser-Ser-Arg-Leu-Gly-Ala peptide” value in the assay on anti-C33 antibodies was “better response”.

As for KFSSRLGA, the “color of the spots (immunoreactivity)” value in assay [1] is reported as “maximum”.

Regarding KFSSYLGA [SEQ ID NO: 34], the “response compared with the Lys-Phe-Ser-Ser-Arg-Leu-Gly-Ala peptide” value in the assay with anti-C33 antibodies was “better response”.

Turning to KHSSYLGA [SEQ ID NO: 37], in the assay on anti-C33 antibodies, the “response compared with the Lys-Phe-Ser-Ser-Arg-Leu-Gly-Ala peptide” value was “advantageously”.

As to KYSSRLGA [SEQ ID NO: 35], the “response compared with the Lys-Phe-Ser-Ser-Arg-Leu-Gly-Ala peptide” value in the assay with anti-C33 antibodies is “equivalent response”.

Turning to RLGAAGAE, the “color of the spots (immunoreactivity)” value in assay [1] is given as “disappears completely”.

Regarding SRLGAAGA, the “color of the spots (immunoreactivity)” value in assay [1] is reported as “very slight coloration”.

Source of the values: US5985541A, “Peptide capable of being recognized by antibodies recognizing the C33 antigen of hepatitis C virus” (Bio Merieux, priority 1995, dated 1999).
